Read-outs that look alike come from different tables or passages of the source. Where only a bound is given, the exact number is not on record here.

Assay type in all cases: cell-based
Assay [1] concerns the target T1, CDK2-NanoLuc fusion with CCNE1 in 293T or 293 cells (Homo sapiens, UniProt P24941).
T1 construct: host or cells: 293T (ATCC CRL-3216) or 293 (ATCC CRL-1573)
Put plainly: NanoBRET Target Engagement (TE) Intracellular Kinase Assay, CDK2/CCNE1. Conditions: NanoBRET TE intracellular kinase assay, 2-hour incubation, read-out: NanoBRET-CDK2/E1 IC50. As to the method:
(§1) Inhibitory effects of compounds were measured in NanoBRET TE Intracellular Kinase Assay. […] Cells were co-transfected with 1 μg/mL of CDK-NanoLuc Fusion Vector (Promega; NV2701 for CDK1, NV2781 for CDK2, NV2811 for CDK4, NV2841 for CDK6) and 1 μg/mL of the corresponding Cyclin Expression Vector (Promega; NV2601 for CCNB1, NV2641 for CCNE1, NV2621 for CCND1, NV2631 for CCND3) using FuGENE HD Transfection Reagent (Promega; E2311). […] 20 uL/well of 3× Intracellular TE Nano-Glo Substrate/Inhibitor (Promega; N2162) were added to 384-well plates and incubated for 3 minutes at room temperature. NanoBRET signals (donor emission wavelength at 450 nm, acceptor emission wavelength at 610 nm) were measured using Envision plate reader (PerkinElmer). NanoBRET ratio was calculated by: BRET Ratio=raw signal for acceptor/raw signal for donor. Dose response curve normalized to DMSO control was plotted using four-parameter logistic model for IC50 calculation.
On the technique in general: Bioluminescence resonance energy transfer reports proximity on the nanometre scale.

Assay [2] relates to Phospho-Rb Ser807/811 in OVCAR3 cells. Put plainly: OVCAR3 Phospho-Rb Ser807/811 HTRF assay. Conditions: OVCAR3 cells, Phospho-Rb Ser807/811 HTRF, 1 hour incubation, read-out: pRb-OVCAR3 IC50. As to the method: Cells were trypsinized and resuspended in 1 mM hydroxyurea (Sigma; H8627), 90% RPMI and 10% fetal bovine serum. […] Dose response curve normalized to DMSO control was plotted using four-parameter logistic model for IC50 calculation.

For assay [3], the target named is T2, CDK4-NanoLuc fusion with CCND1 in 293T or 293 cells (Homo sapiens, UniProt P11802).
T2 construct: host or cells: 293T (ATCC CRL-3216) or 293 (ATCC CRL-1573)
Put plainly: NanoBRET Target Engagement (TE) Intracellular Kinase Assay, CDK4/CCND1. Conditions: NanoBRET TE intracellular kinase assay, 2-hour incubation, read-out: NanoBRET-CDK4/D1 IC50. As to the method:
as §1

T2 sequence (P11802 whole entry, the tested form may be a part): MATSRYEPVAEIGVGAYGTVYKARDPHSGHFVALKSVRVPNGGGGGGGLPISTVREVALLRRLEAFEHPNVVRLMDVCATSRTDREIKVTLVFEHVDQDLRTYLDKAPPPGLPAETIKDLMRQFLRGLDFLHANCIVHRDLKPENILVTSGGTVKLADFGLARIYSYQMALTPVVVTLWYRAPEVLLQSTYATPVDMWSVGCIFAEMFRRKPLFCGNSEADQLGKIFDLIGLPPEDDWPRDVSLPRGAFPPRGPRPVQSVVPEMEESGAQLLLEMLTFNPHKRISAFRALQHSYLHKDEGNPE
T2 sequence (P24385 whole entry partner, the tested form may be a part): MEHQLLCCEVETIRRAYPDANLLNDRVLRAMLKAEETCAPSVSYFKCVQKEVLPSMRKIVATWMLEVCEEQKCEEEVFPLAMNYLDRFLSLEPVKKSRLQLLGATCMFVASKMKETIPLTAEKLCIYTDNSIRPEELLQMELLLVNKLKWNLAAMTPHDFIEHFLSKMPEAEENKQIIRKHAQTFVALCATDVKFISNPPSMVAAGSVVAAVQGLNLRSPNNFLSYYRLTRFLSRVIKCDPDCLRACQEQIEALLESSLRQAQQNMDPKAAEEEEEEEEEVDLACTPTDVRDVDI

Turning to `COc1cc(O)c(C=O)c2c1CC(C(=O)Nc1cc([C@H]3CC[C@@H](OC(=O)N4CCCN4C)C3)[nH]n1)C2` (single isomer, unassigned) [Compound 262, (1R,3S)-3-(3-((*)-4-formyl-5-hydroxy-7-methoxy-2,3-dihydro-1H-indene-2-carboxamido)-1H-pyrazol-5-yl)cyclopentyl 2-methylpyrazolidine-1-carboxylate], the IC50 in assay [1] amounted to 0.00442 µM; in assay [2], 0.0518 µM; in assay [3], 5.08 µM.
The corresponding values for `COc1cc(O)c(C=O)c2c1CC(C(=O)Nc1cc([C@H]3CC[C@@H](OC(=O)N4CCCN4C)C3)[nH]n1)C2` (single isomer, unassigned) [Compound 263, (1R,3S)-3-(3-((*)-4-formyl-5-hydroxy-7-methoxy-2,3-dihydro-1H-indene-2-carboxamido)-1H-pyrazol-5-yl)cyclopentyl 2-methylpyrazolidine-1-carboxylate] are 0.0633 µM, 7.74 µM and 0.735 µM.
The corresponding values for `COc1cc(O)c(C=O)c2c1CC(C(=O)Nc1cc([C@H]3CC[C@@H](OC(=O)NN(C)CC(F)(F)F)C3)[nH]n1)C2` (single isomer, unassigned) [Compound 264, (1R,3S)-3-(3-((*)-4-formyl-5-hydroxy-7-methoxy-2,3-dihydro-1H-indene-2-carboxamido)-1H-pyrazol-5-yl)cyclopentyl 2-methyl-2-(2,2,2-trifluoroethyl)hydrazine-1-carboxylate] are 0.00595 µM, 0.0136 µM and 0.512 µM.
Turning to `COc1cc(O)c(C=O)c2c1CC(C(=O)Nc1cc([C@H]3CC[C@@H](OC(=O)NN(C)CC(F)(F)F)C3)[nH]n1)C2` (single isomer, unassigned) [Compound 265, (1R,3S)-3-(3-((*)-4-formyl-5-hydroxy-7-methoxy-2,3-dihydro-1H-indene-2-carboxamido)-1H-pyrazol-5-yl)cyclopentyl 2-methyl-2-(2,2,2-trifluoroethyl)hydrazine-1-carboxylate], the IC50 was 0.0155 µM in assay [1], 0.567 µM in assay [2] and 0.132 µM in assay [3].
`COc1cc(O)c(C=O)c2c1CC(C(=O)Nc1cc([C@H]3CC[C@@H](OC(=O)N4CCCCN4C)C3)[nH]n1)C2` (single isomer, unassigned) [Compound 266, (1R,3S)-3-(3-((*)-4-formyl-5-hydroxy-7-methoxy-2,3-dihydro-1H-indene-2-carboxamido)-1H-pyrazol-5-yl)cyclopentyl 2-methyltetrahydropyridazine-1(2H)-carboxylate]: the IC50 in assay [1] came to 0.00199 µM; in assay [2], 0.123 µM; in assay [3] it was 1.98 µM.
In the case of `COc1cc(O)c(C=O)c2c1CC(C(=O)Nc1cc([C@H]3CC[C@@H](OC(=O)N4CCCCN4C)C3)[nH]n1)C2` (single isomer, unassigned) [Compound 267, (1R,3S)-3-(3-((*)-4-formyl-5-hydroxy-7-methoxy-2,3-dihydro-1H-indene-2-carboxamido)-1H-pyrazol-5-yl)cyclopentyl 2-methyltetrahydropyridazine-1(2H)-carboxylate], the values for the IC50 in assay [1], in assay [2] and in assay [3] were 0.0218 µM, 5.23 µM and 0.266 µM, respectively.
The like results for `COc1cc(O)c(C=O)c2c1CC(C(=O)Nc1cc([C@H]3CC[C@@H](OC(=O)NN(C)C)C3)n[nH]1)C2` (single isomer, unassigned) [Compound 268, (1R,3S)-3-(3-((*)-4-formyl-5-hydroxy-7-methoxy-2,3-dihydro-1H-indene-2-carboxamido)-1H-pyrazol-5-yl)cyclopentyl 2,2-dimethylhydrazine-1-carboxylate] were, in that order, 0.0108 µM, 0.0859 µM and 4.94 µM.
The corresponding values for `COc1cc(O)c(C=O)c2c1CC(C(=O)Nc1cc([C@H]3CC[C@@H](OC(=O)NN(C)C)C3)n[nH]1)C2` (single isomer, unassigned) [Compound 269, (1R,3S)-3-(3-((*)-4-formyl-5-hydroxy-7-methoxy-2,3-dihydro-1H-indene-2-carboxamido)-1H-pyrazol-5-yl)cyclopentyl 2,2-dimethylhydrazine-1-carboxylate] are 0.0677 µM, 2.23 µM and 0.459 µM.
The like results for `COc1cc(O)c(C=O)c2c1CC(C(=O)Nc1cc([C@H]3C[C@@H](OC(=O)N(C)N(C)C)C3)n[nH]1)C2` (single isomer, unassigned) [Compound 270] were, in that order, 0.00625 µM, 0.0486 µM and above 10 µM.
For the compound `COc1cc(O)c(C=O)c2c1CC(C(=O)Nc1cc([C@H]3C[C@@H](OC(=O)N(C)N(C)C)C3)n[nH]1)C2` (single isomer, unassigned) [Compound 271], the IC50 in assay [1] is 0.24 µM; in assay [2] it was above 10 µM; in assay [3] it was 3.25 µM.
For the compound `COc1cc(O)c(C=O)c(OCC(=O)Nc2cc([C@H]3CC[C@@H](OC(=O)NC4(C)CC4(F)F)C3)[nH]n2)c1` (single isomer, unassigned) [Compound 280, (1R,3S)-3-(3-(2-(2-formyl-3-hydroxy-5-methoxyphenoxy)acetamido)-1H-pyrazol-5-yl)cyclopentyl ((*)-2,2-difluoro-1-methylcyclopropyl)carbamate], the IC50 worked out at 0.00388 µM in assay [1]; 0.0174 µM in assay [2] (Homo sapiens, OVCAR-3, 1 h); 0.576 µM in assay [3].
For `COc1cc(O)c(C=O)c(OCC(=O)Nc2cc([C@H]3CC[C@@H](OC(=O)NC4(C)CC4(F)F)C3)[nH]n2)c1` (single isomer, unassigned) [Compound 281, (1R,3S)-3-(3-(2-(2-formyl-3-hydroxy-5-methoxyphenoxy)acetamido)-1H-pyrazol-5-yl)cyclopentyl ((*)-2,2-difluoro-1-methylcyclopropyl)carbamate], the IC50 in assay [1] is 0.00485 µM; in assay [2], 0.0273 µM; in assay [3] it was 1.2 µM.
For `COc1cc(O)c(C=O)c2c1CC(C(=O)Nc1cc([C@H]3C[C@@H](OC(=O)NC(C)C)C3)[nH]n1)C2` (single isomer, unassigned) [Compound 282, (1R,3s)-3-(3-((*)-4-formyl-5-hydroxy-7-methoxy-2,3-dihydro-1H-indene-2-carboxamido)-1H-pyrazol-5-yl)cyclobutyl isopropylcarbamate], the IC50 in assay [1] came to 0.0053 µM; in assay [2] (Homo sapiens, OVCAR-3, 1 h) it was 0.0204 µM; in assay [3] it was 3.35 µM.
The like results for `COc1cc(O)c(C=O)c2c1CC(C(=O)Nc1cc([C@H]3CC[C@@H](OC(=O)NC(C)(C)C)C3)[nH]n1)C2` (single isomer, unassigned) [Compound 283, (1R,3S)-3-(3-((*)-4-formyl-5-hydroxy-7-methoxy-2,3-dihydro-1H-indene-2-carboxamido)-1H-pyrazol-5-yl)cyclopentyl tert-butylcarbamate] were, in that order, 0.00201 µM, 0.0126 µM and 0.236 µM.
The corresponding values for `COc1cc(O)c(C=O)c2c1CC(C(=O)Nc1cc([C@H]3CC[C@@H](OC(=O)N(C)N(C)C)C3)n[nH]1)C2` (single isomer, unassigned) [Compound 284, (1R,3S)-3-(3-((*)-4-formyl-5-hydroxy-7-methoxy-2,3-dihydro-1H-indene-2-carboxamido)-1H-pyrazol-5-yl)cyclopentyl 1,2,2-trimethylhydrazine-1-carboxylate] are 0.00185 µM, 0.0292 µM and 2.85 µM.

The record behind these values is US20250289789A1, “REVERSIBLE LYSINE COVALENT MODIFIERS OF CDK2 AND USES THEREOF” (Terremoto Biosciences, Inc., priority 2023, published 2025).
